Target: IDH1 R132H enzyme (Homo sapiens (Human), UniProt O75874, R132H)
Test: Mutant IDH1 R132H biochemical assay
Conditions: luminescent NADPH consumption readout; 1.5 nM enzyme, 1 μM NADPH, 250 μM α-KG, 30 min, 32° C.
Protocol: Mutant IDH1 R132H Biochemical Assay
mIDH1 catalyzes the NADPH-dependent reduction of alpha-ketoglutarate (α-KG) to (2R)-2-hydroxyglutarate (2-HG). NADPH consumption was measured by luminescent readout.
The biochemical reactions were performed at 32° C. in 384-well plates using a reaction volume of 41 μL and the following assay buffer conditions: 50 mM Tris pH 7.5, 100 mM NaCl, 20 mM MgCl2, 0.05% BSA, 0.01% Brij, 1 μM NADPH, and 250 μM α-KG. The IDH1 R132H enzyme was used in a final concentration of 1.5 nM. Test compounds were used in a concentration range between 0.002 and 10 μM. The final DMSO concentration was 2.4%.
The reaction was incubated for 30 minutes, then 40 μL of detection mix (0.75 μg/ml Luciferase, 0.02 U/ml Oxidoreductase, 4 μg/mL FMN, 2 μL/ml decanal/ethanol, 50 mM Tris pH 7.5, 0.5% Glycerin, 0.01% Tween-20, 0.05% BSA) was added. Luminescence was measured on a luminescent reader (10 seconds measuring time, 1 second integration period, 30% sensitivity). The decrease in luminescence is proportional to mIDH1 activity. IC50 values are determined by interpolation from plots of relative luminescence versus inhibitor concentration.

IDH1 R132H enzyme, sequence (O75874 whole entry R132H): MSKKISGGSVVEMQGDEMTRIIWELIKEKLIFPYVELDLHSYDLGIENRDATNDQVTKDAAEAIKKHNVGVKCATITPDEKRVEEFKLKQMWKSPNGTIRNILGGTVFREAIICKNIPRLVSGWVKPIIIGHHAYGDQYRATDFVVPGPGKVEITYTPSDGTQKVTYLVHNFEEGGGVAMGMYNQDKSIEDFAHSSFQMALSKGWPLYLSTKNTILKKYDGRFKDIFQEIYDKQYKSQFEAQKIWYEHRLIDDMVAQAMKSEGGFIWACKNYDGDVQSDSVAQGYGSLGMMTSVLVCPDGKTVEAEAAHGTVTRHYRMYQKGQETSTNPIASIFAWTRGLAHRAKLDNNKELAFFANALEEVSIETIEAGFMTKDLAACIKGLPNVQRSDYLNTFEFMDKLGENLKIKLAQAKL

Structure (SMILES)	IC50 [nM]
C[C@@H]1C[C@H](n2c(Nc3ccc(OC(F)(F)F)cc3)nc3cc(CO)ccc32)CC(C)(C)C1 (single isomer, unassigned; enantiomer b) [Example 2-1-2, (2-{[4-(trifluoromethoxy)phenyl]amino}-1-[(cis)-3,3,5-trimethylcyclohexyl]-1H-benzimidazol-5-yl)methanol, enantiomer B]	70
C[C@@H]1C[C@H](n2c(Nc3ccc(OC(F)(F)F)cc3)nc3cc(CCC(C)(C)O)ccc32)CC(C)(C)C1 (single isomer, unassigned; enantiomer a) [Example 2-11-1, 2-methyl-4-(2-{[4-(trifluoromethoxy)phenyl]amino}-1-[(cis)-3,3,5-trimethylcyclohexyl]-1H-benzimidazol-5-yl)butan-2-ol, enantiomer A]	210
COc1cc2c(cc1CCC(C)(C)O)nc(Nc1ccc(OC(F)(F)F)cc1)n2[C@H]1C[C@@H](C)CC(C)(C)C1 (single isomer, unassigned; enantiomer b) [Example 2-12-2, 4-(6-methoxy-2-{[4-(trifluoromethoxy)phenyl]amino}-1-[(cis)-3,3,5-trimethylcyclohexyl]-1H-benzimidazol-5-yl)-2-methylbutan-2-ol, enantiomer B]	10
C[C@@H]1C[C@H](n2c(Nc3ccc(OC(F)(F)F)cc3)nc3cc(CC(C)(C)O)c(F)cc32)CC(C)(C)C1 (single isomer, unassigned; enantiomer a) [Example 2-10-1, 1-(6-fluoro-2-{[4-(trifluoromethoxy)phenyl]amino}-1-[(cis)-3,3,5-trimethylcyclohexyl]-1H-benzimidazol-5-yl)-2-methylpropan-2-ol, enantiomer A]	320
COc1cc2c(cc1CC(C)(C)O)nc(Nc1ccc(OC(F)(F)F)cc1)n2[C@H]1C[C@@H](C)CC(C)(C)C1 (single isomer, unassigned; enantiomer a) [Example 2-9-1, 1-(6-methoxy-2-{[4-(trifluoromethoxy)phenyl]amino}-1-[(cis)-3,3,5-trimethylcyclohexyl]-1H-benzimidazol-5-yl)-2-methylpropan-2-ol, enantiomer A]	30
Cc1cc2c(cc1C(C)(C)O)nc(Nc1ccc(OC(F)(F)F)cc1)n2[C@H]1C[C@@H](C)CC(C)(C)C1 (single isomer, unassigned; enantiomer b) [Example 2-3-2, 2-(6-methyl-2-{[4-(trifluoromethoxy)phenyl]amino}-1-[(cis)-3,3,5-trimethylcyclohexyl]-1H-benzimidazol-5-yl)propan-2-ol, enantiomer B]	20
COc1cc2c(cc1C(C)(C)O)nc(Nc1ccc(OC(F)(F)F)cc1)n2[C@H]1C[C@@H](C)CC(C)(C)C1 (racemic) [Example 2-7, (±) 2-(6-methoxy-2-{[4-(trifluoromethoxy)phenyl]amino}-1-[(cis)-3,3,5-trimethylcyclohexyl]-1H-benzimidazol-5-yl)propan-2-ol]	20
Cc1cc2c(cc1C(C)(C)O)nc(Nc1ccc(OC(F)(F)F)cc1)n2[C@H]1C[C@@H](C)CC(C)(C)C1 (single isomer, unassigned; enantiomer a) [Example 2-3-1, 2-(6-methyl-2-{[4-(trifluoromethoxy)phenyl]amino}-1-[(cis)-3,3,5-trimethylcyclohexyl]-1H-benzimidazol-5-yl)propan-2-ol, enantiomer A]	80
Cc1cc2c(cc1CC(C)(C)O)nc(Nc1ccc(OC(F)(F)F)cc1)n2[C@H]1C[C@@H](C)CC(C)(C)C1 (single isomer, unassigned; enantiomer a) [Example 2-8-1, 2-methyl-1-(6-methyl-2-{[4-(trifluoromethoxy)phenyl]amino}-1-[(cis)-3,3,5-trimethylcyclohexyl]-1H-benzimidazol-5-yl)propan-2-ol, enantiomer A]	120
COc1cc2c(cc1CO)nc(Nc1ccc(OC(F)(F)F)cc1)n2[C@H]1C[C@@H](C)CC(C)(C)C1 (racemic) [Example 2-6, (±) (6-methoxy-2-{[4-(trifluoromethoxy)phenyl]amino}-1-[(cis)-3,3,5-trimethylcyclohexyl]-1H-benzimidazol-5-yl)methanol]	20
COc1cc2c(cc1CCC(C)(C)O)nc(Nc1ccc(OC(F)(F)F)cc1)n2[C@H]1C[C@@H](C)CC(C)(C)C1 (single isomer, unassigned; enantiomer a) [Example 2-12-1, 4-(6-methoxy-2-{[4-(trifluoromethoxy)phenyl]amino}-1-[(cis)-3,3,5-trimethylcyclohexyl]-1H-benzimidazol-5-yl)-2-methylbutan-2-ol, enantiomer A]	50
COc1cc2c(cc1CC(C)(C)O)nc(Nc1ccc(OC(F)(F)F)cc1)n2[C@H]1C[C@@H](C)CC(C)(C)C1 (single isomer, unassigned; enantiomer b) [Example 2-9-2, 1-(6-methoxy-2-{[4-(trifluoromethoxy)phenyl]amino}-1-[(cis)-3,3,5-trimethylcyclohexyl]-1H-benzimidazol-5-yl)-2-methylpropan-2-ol, enantiomer B]	10
Cc1cc2c(cc1CC(C)(C)O)nc(Nc1ccc(OC(F)(F)F)cc1)n2[C@H]1C[C@@H](C)CC(C)(C)C1 (single isomer, unassigned; enantiomer b) [Example 2-8-2, 2-methyl-1-(6-methyl-2-{[4-(trifluoromethoxy)phenyl]amino}-1-[(cis)-3,3,5-trimethylcyclohexyl]-1H-benzimidazol-5-yl)propan-2-ol, enantiomer B]	10

Further lines, results first:

IC50 [nM]	Structure (SMILES)
290	CC(C)c1ccc(Nc2nc3cc(CCC(C)(C)O)ccc3n2[C@@H]2C[C@H](C)CC[C@H]2C(C)C)cc1 [Example 2-19, 4-{1-[(1R,2S,5R)-2-isopropyl-5-methylcyclohexyl]-2-[(4-isopropyl-phenyl)amino]-1H-benzimidazol-5-yl}-2-methylbutan-2-ol]
30	Cc1cc2c(cc1CC(C)(C)O)nc(Nc1ccc(OC(F)(F)F)cc1)n2[C@H]1C[C@@H](C)CC(C)(C)C1 (racemic) [Example 2-8, (±) 2-methyl-1-(6-methyl-2-{[4-(trifluoromethoxy)phenyl]amino}-1-[(cis)-3,3,5-trimethylcyclohexyl]-1H-benzimidazol-5-yl)propan-2-ol]
40	CC(C)[C@@H]1CC[C@@H](C)C[C@H]1n1c(Nc2ccc(OC(F)(F)F)cc2)nc2cc(CC(C)(C)O)ccc21 [Example 2-15, 1-(1-[(1R,2S,5R)-2-isopropyl-5-methylcyclohexyl]-2-{[4-(trifluoro-methoxy)phenyl]amino}-1H-benz-imidazol-5-yl)-2-methylpropan-2-ol]
100	CC(C)[C@@H]1CC[C@@H](C)C[C@H]1n1c(Nc2ccc(OC(F)(F)F)cc2)nc2cc(CCC(C)(C)O)ccc21 [Example 2-18, 4-(1-[(1R,2S,5R)-2-isopropyl-5-methylcyclohexyl]-2-{[4-(trifluoro-methoxy)phenyl]amino}-1H-benz-imidazol-5-yl)-2-methylbutan-2-ol]
300	CC(C)Oc1ccc(Nc2nc3cc(CCC(C)(C)O)ccc3n2[C@@H]2C[C@H](C)CC[C@H]2C(C)C)cc1 [Example 2-20, 4-{2-[(4-isopropoxyphenyl)amino]-1-[(1R,2S,5R)-2-isopropyl-5-methylcyclohexyl]-1H-benzimidazol-5-yl}-2-methylbutan-2-ol]
240	C[C@@H]1C[C@H](n2c(Nc3ccc(OC(F)(F)F)cc3)nc3cc(CC(C)(C)O)c(F)cc32)CC(C)(C)C1 (racemic) [Example 2-10, (±) 1-(6-fluoro-2-{[4-(trifluoromethoxy)phenyl]amino}-1-[(cis)-3,3,5-trimethylcyclohexyl]-1H-benzimidazol-5-yl)-2-methylpropan-2-ol]
120	CC(C)c1ccc(Nc2nc3cc(C(C)(C)O)ccc3n2[C@@H]2C[C@H](C)CC[C@H]2C(C)C)cc1 [Example 2-14, 2-{1-[(1R,2S,5R)-2-isopropyl-5-methylcyclohexyl]-2-[(4-isopropyl-phenyl)amino]-1H-benzimidazol-5-yl}propan-2-ol]
160	CC(C)Oc1ccc(Nc2nc3cc(CC(C)(C)O)ccc3n2[C@@H]2C[C@H](C)CC[C@H]2C(C)C)cc1 [Example 2-17, 1-{2-[(4-isopropoxyphenyl)amino]-1-[(1R,2S,5R)-2-isopropyl-5-methylcyclohexyl]-1H-benz-imidazol-5-yl}-2-methylpropan-2-ol]
80	CC(C)[C@@H]1CC[C@@H](C)C[C@H]1n1c(Nc2ccc(OC(F)(F)F)cc2)nc2cc(C(C)(C)O)ccc21 [Example 2-13, 2-(1-[(1R,2S,5R)-2-isopropyl-5-methylcyclohexyl]-2-{[4-(trifluoromethoxy)phenyl]-amino}-1H-benzimidazol-5-yl)propan-2-ol]
60	CC(C)c1ccc(Nc2nc3cc(CC(C)(C)O)ccc3n2[C@@H]2C[C@H](C)CC[C@H]2C(C)C)cc1 [Example 2-16, 1-{1-[(1R,2S,5R)-2-isopropyl-5-methylcyclohexyl]-2-[(4-isopropyl-phenyl)amino]-1H-benzimidazol-5-yl}-2-methylpropan-2-ol]
20	COc1cc2c(cc1CC(C)(C)O)nc(Nc1ccc(OC(F)(F)F)cc1)n2[C@H]1C[C@@H](C)CC(C)(C)C1 (racemic) [Example 2-9, (±) 1-(6-methoxy-2-{[4-(trifluoromethoxy)phenyl]amino}-1-[(cis)-3,3,5-trimethylcyclohexyl]-1H-benzimidazol-5-yl)-2-methylpropan-2-ol]
